Experimental data taken from US20120309734A1, “COMBRETASTATIN DERIVATIVES AND USES THEREFOR” (priority 2009, published 2012).
Read-outs that look alike come from different tables or passages of the source.

Tests used:
[1] = system: human chronic myeloid leukaemia K562 cells; assay: MTT cell viability assay; type: cell-based; settings: read-out: Inhibition of cell viability (IC50 value, nM) K562
[2] = system: MCF-7 breast cancer cell line; assay: Antiproliferation study, MTT cell viability assay; type: cell-based; settings: Homo sapiens
Description: All assays were performed in triplicate for the determination of mean values reported. Compounds were assayed as the free bases isolated from reaction. The human breast tumour cell line MCF-7 was cultured in Eagles minimum essential medium in a […] atmosphere with 10% fetal bovine serum, 2 mM L-glutamine and 100 μg/mL penicillin/streptomycin. The medium was supplemented with 1% non-essential amino acids. MDA-MB-231 cells were maintained in Dulbecco's Modified Eagle's medium (DMEM), supplemented with 10% (v/v) Fetal bovine serum, 2 mM L-glutamine and 100 μg/mL penicillin/streptomycin (complete medium). Cells were trypsinised and seeded at a density of 2.5×10^4 cells/ml in a 96-well plate and incubated at 37° C., […] atmosphere for 24 h. […] Control wells contained the equivalent volume of the vehicle ethanol (1% v/v). The culture medium was then removed and the cells washed with 100 μL phosphate buffered saline (PBS) and 50 μL MTT added, to reach a final concentration of 1 mg/mL MTT added. Cells were incubated for 2 h in darkness at 37° C. At this point solubilization was begun through the addition of 200 μL DMSO and the cells maintained at room temperature in darkness for 20 min to ensure thorough colour diffusion before reading the absorbance. The absorbance value of control cells (no added compound) was set to 100% cell viability and from this graphs of absorbance versus cell density per well were prepared to assess cell viability and from these, graphs of percentage cell viability versus concentration of subject compound added were drawn.

[3] = system: normal mouse mammary epithelial cells; assay: Viability of normal mammary epithelial cells; type: cell-based; settings: 72 hr treatment
[4] = system: human promyelocytic leukaemia HL-60 cells; assay: MTT cell viability assay; type: cell-based; settings: read-out: Inhibition of cell viability (IC50 value, nM) HL-60
[5] = system: normal mouse mammary epithelial cells; assay: Viability of normal mammary epithelial cells; type: cell-based
Description: The maximum toxicity elicited by these drugs on normal cells at a concentration of 10 nM was only 8% (see Table 4).

[6] = molecular target: T1, purified human liver cathepsin-L (Homo sapiens, UniProt P07711); assay: Fluorogenic cathepsin-L activity kit; type: biochemical; settings: FIG. 2
T1 construct: uses purified human liver cathepsin-L as the source of the cathepsin; purchased calbiochem; host or cells: human liver
Description: Cathepsin L activity was measured using the fluorogenic cathepsin-L activity kit from calbiochem which uses purified human liver cathepsin-L as the source of the cathepsin. […] Values represent the mean+/−range of two separate experiments each carried out in duplicate.

[7] = system: purified bovine brain tubulin; assay: Tubulin polymerization assay (turbidity); type: biochemical
Description: The effect of compounds on the assembly of purified bovine brain tubulin was determined spectrophotometrically by monitoring the change in turbidity. This assay used a 96-well plate format with 300 μg of >99% purified bovine brain tubulin in each well. […] 10 μl of 10× strength of each compound tested was pipetted into a half area 96-well plate prewarmed to 37° C. A 100 μl volume of tubulin was then pipetted into the prewarmed plate. Samples were mixed well and tubulin assembly was monitored at an A340 nm at 30 second intervals for 60 minutes at 37° C. in a Spectromax 340PC spectrophotometer (Molecular Devices).

[8] = system: MDA-MB-231 cells; assay: Antiproliferation study, MTT cell viability assay; type: cell-based; settings: Homo sapiens, read-out: antiproliferative effects, MDA-MB-231
Description: All assays were performed in triplicate for the determination of mean values reported. Compounds were assayed as the free bases isolated from reaction. The human breast tumour cell line MCF-7 was cultured in Eagles minimum essential medium in a […] atmosphere with 10% fetal bovine serum, 2 mM L-glutamine and 100 μg/mL penicillin/streptomycin. The medium was supplemented with 1% non-essential amino acids. MDA-MB-231 cells were maintained in Dulbecco's Modified Eagle's medium (DMEM), supplemented with 10% (v/v) Fetal bovine serum, 2 mM L-glutamine and 100 μg/mL penicillin/streptomycin (complete medium). […] At this point solubilization was begun through the addition of 200 μL DMSO and the cells maintained at room temperature in darkness for 20 min to ensure thorough colour diffusion before reading the absorbance. The absorbance value of control cells (no added compound) was set to 100% cell viability and from this graphs of absorbance versus cell density per well were prepared to assess cell viability and from these, graphs of percentage cell viability versus concentration of subject compound added were drawn.
(§1) MDA-MB-231 cells were treated with vehicle (1% (v/v) ethanol) or 10 nM, 100 nM, 1 μM and 10 μM (final concentrations) of 25. Cells were harvested after 24, 48 or 72 hours and analysed for DNA content by flow cytometry.

[9] = system: MDA-MB-231 cells; assay: Cell cycle analysis by flow cytometry (PI); type: cell-based, human
Description: The MDA-MB-231 cells were seeded at a density of 18×10^4 cells/mL in 5 mL of medium (900,000 cells per flask). After 24 hours the control was treated with 50 μL of ethanol (1% v/v) and selected compound dosed at range 10 nM-10 μM (final concentration, 1% v/v). They were incubated for 72 hours. Following incubation, the cells were removed from the bottom of the flask by scraping and the medium placed in a 20 mL sterilin. They were centrifuged for 10 minutes at 600×g. The supernatant was decanted and the pellet resuspended in 1 mL of ice-cold PBS; cells were again centrifuged for 10 minutes at 600×g. The supernatant was decanted and the pellet resuspended in 200 μL of ice-cold phosphate buffer saline (PBS). Subsequently ice-cold 70% ethanol (2 mL) was slowly added to the tube as it was gently vortexed. The cells were kept at −20° C. for at least one hour. After the fixation 5 μL of FBS was added to the samples. The cells were harvested by centrifugation at 600×g for 10 mins. The ethanol was carefully removed and the pellet resuspended in 400 μL of PBS and transferred to FACS microtubes. A 25 μL aliquot of RNase A (1 mg/mL) and 75 μL of propidium iodide (PI) 1 mg/mL, a DNA binding fluorescent dye, was added to each tube. The samples were wrapped in aluminium foil and incubated for a minimum of 30 min at 37° C. The samples were read at 488 nm using FACscalibur flow cytometer from Becton Dickinson. The FACS data for 10,000 cells was analysed using the Macintosh-based application Cellquest and the data was stored as frequency histograms.
as §1

[10] = MCF7, 72 h, antiproliferative activity, MTT, 72 h, read-out: IC50 (μM) MCF-7 cell line

T1 sequence (P07711 114-333): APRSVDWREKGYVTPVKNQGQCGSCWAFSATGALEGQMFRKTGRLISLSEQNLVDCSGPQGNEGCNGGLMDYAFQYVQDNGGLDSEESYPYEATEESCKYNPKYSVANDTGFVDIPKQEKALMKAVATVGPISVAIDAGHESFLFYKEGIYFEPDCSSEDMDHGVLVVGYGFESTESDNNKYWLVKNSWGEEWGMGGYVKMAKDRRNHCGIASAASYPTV

COc1ccc(C2C(c3ccc(O)cc3)C(=O)N2c2cc(OC)c(OC)c(OC)c2)cc1O (stereo not drawn) [Compound 14, 4-(3-Hydroxy-4-methoxy-phenyl)-3-(4-hydroxy-phenyl)-1-(3,4,5-trimethoxy-phenyl)-azetidin-2-one]
IC50 [1]: 0.9 nM
IC50 [2, 10]: 0.0008 µM
IC50 ([2]; MCF7, MTT cell viability assay, read-out: Inhibition of cell viability (IC50 value, nM) MCF-7): 0.0008 to 0.0031 µM
Percent viability of normal mammary epithelial cells compared to control ([3]; 1 nM): 93.8%
Percent viability of normal mammary epithelial cells compared to control ([3]; 100 nM): 73.2%
Percent viability of normal mammary epithelial cells compared to control ([3]; 1 μM): 75.2%
Percent viability of normal mammary epithelial cells compared to control ([3]; 10 μM): 74.8%
melting point: 152 °C
IC50 [4]: 0.4 nM
Percent viability of normal mammary epithelial cells compared to control ([5]; 10 nM, 72 hr treatment): 90%
effects on normal mammary epithelial cells ([5]; up to 10 μM): minimal effects
inhibition of cathepsin-L activity [6]: inhibited cathepsin-L in the nanomolar range

COc1ccc(C2CC(=O)N2c2cc(OC)c(OC)c(OC)c2)cc1O (stereo not drawn) [Compound 25]
X-fold inhibition of tubulin polymerisation (Vmax ± SEM) ([7]; 1 μM): 1.1 ± 0.2 fold
X-fold inhibition of tubulin polymerisation (Vmax ± SEM) ([7]; 10 μM): 10.2 ± 2.3 fold
IC50 [2, 10]: 0.017 µM
IC50 ([2]; MCF7, read-out: antiproliferative effects, MCF-7): 0.017 µM
IC50 [8]: 54 nM
G1 (%) ([9]; 10 nM, 24 hours): 48.33 ± 4.18%
G2/M (%) ([9]; 10 nM, 24 hours): 25.61 ± 0.98%
M5 (%) ([9]; 10 nM, 24 hours): 2.84 ± 0.59%
S (%) ([9]; 10 nM, 24 hours): 12.55 ± 2.54%
Sub-G1 (%) ([9]; 10 nM, 24 hours): 3.72 ± 1.97%
G1 (%) ([9]; 10 nM, 48 hours): 45.25 ± 7.37%
G2/M (%) ([9]; 10 nM, 48 hours): 23.71 ± 7.81%
M5 (%) ([9]; 10 nM, 48 hours): 6.10 ± 0.62%
S (%) ([9]; 10 nM, 48 hours): 13.36 ± 2.58%
Sub-G1 (%) ([9]; 10 nM, 48 hours): 11.57 ± 3.06%
G1 (%) ([9]; 10 nM, 72 hours): 48.24 ± 2.79%
G2/M (%) ([9]; 10 nM, 72 hours): 17.68 ± 4.58%
M5 (%) ([9]; 10 nM, 72 hours): 3.55 ± 1.57%
S (%) ([9]; 10 nM, 72 hours): 9.08 ± 2.32%
Sub-G1 (%) ([9]; 10 nM, 72 hours): 15.25 ± 2.03%
G1 (%) ([9]; 100 nM, 24 hours): 18.95 ± 6.60%
G2/M (%) ([9]; 100 nM, 24 hours): 59.43 ± 3.13%
M5 (%) ([9]; 100 nM, 24 hours): 4.87 ± 4.39%
S (%) ([9]; 100 nM, 24 hours): 6.05 ± 0.38%
Sub-G1 (%) ([9]; 100 nM, 24 hours): 4.88 ± 0.85%
G1 (%) ([9]; 100 nM, 48 hours): 10.76 ± 0.34%
G2/M (%) ([9]; 100 nM, 48 hours): 36.42 ± 3.42%
M5 (%) ([9]; 100 nM, 48 hours): 4.61 ± 0.86%
S (%) ([9]; 100 nM, 48 hours): 8.90 ± 0.85%
Sub-G1 (%) ([9]; 100 nM, 48 hours): 37.50 ± 0.71%
G1 (%) ([9]; 100 nM, 72 hours): 13.90 ± 3.62%
G2/M (%) ([9]; 100 nM, 72 hours): 12.62 ± 9.22%
M5 (%) ([9]; 100 nM, 72 hours): 2.99 ± 1.89%
S (%) ([9]; 100 nM, 72 hours): 5.34 ± 4.32%
Sub-G1 (%) ([9]; 100 nM, 72 hours): 63.10 ± 20.06%
G1 (%) ([9]; 1 μM, 24 hours): 19.22 ± 6.19%
G2/M (%) ([9]; 1 μM, 24 hours): 63.16 ± 4.86%
M5 (%) ([9]; 1 μM, 24 hours): 4.31 ± 3.17%
S (%) ([9]; 1 μM, 24 hours): 6.01 ± 2.90%
Sub-G1 (%) ([9]; 1 μM, 24 hours): 7.08 ± 4.20%
G1 (%) ([9]; 1 μM, 72 hours): 14.29 ± 2.20%
G2/M (%) ([9]; 1 μM, 72 hours): 21.24 ± 12.05%
M5 (%) ([9]; 1 μM, 72 hours): 5.97 ± 4.71%
S (%) ([9]; 1 μM, 72 hours): 7.76 ± 0.58%
Sub-G1 (%) ([9]; 1 μM, 72 hours): 50.53 ± 14.78%
G1 (%) ([9]; 10 μM, 24 hours): 29.30 ± 5.95%
G2/M (%) ([9]; 10 μM, 24 hours): 55.36 ± 1.49%
M5 (%) ([9]; 10 μM, 24 hours): 3.85 ± 3.83%
S (%) ([9]; 10 μM, 24 hours): 3.72 ± 0.71%
Sub-G1 (%) ([9]; 10 μM, 24 hours): 3.18 ± 0.25%
G1 (%) ([9]; 10 μM, 48 hours): 14.44 ± 2.28%
G2/M (%) ([9]; 10 μM, 48 hours): 27.25 ± 4.45%
M5 (%) ([9]; 10 μM, 48 hours): 2.28 ± 0.06%
S (%) ([9]; 10 μM, 48 hours): 4.47 ± 0.06%
Sub-G1 (%) ([9]; 10 μM, 48 hours): 51.27 ± 6.31%
G1 (%) ([9]; 10 μM, 72 hours): 17.14 ± 3.31%
G2/M (%) ([9]; 10 μM, 72 hours): 21.81 ± 12.40%
M5 (%) ([9]; 10 μM, 72 hours): 3.38 ± 2.84%
S (%) ([9]; 10 μM, 72 hours): 9.66 ± 1.84%
Sub-G1 (%) ([9]; 10 μM, 72 hours): 46.49 ± 17.49%
